Results as given in paper PMC4875998, “Liposomal Systems as Nanocarriers for the Antiviral Agent Ivermectin” (International Journal of Biomaterials, 2016).

What was measured:
[1] = Cytotoxicity (methylene blue / MTS assay), CC50; settings: mouse, RAW 264.7 cells
[2] = Cytotoxicity (methylene blue / MTS assay), CC50; settings: hamster, BHK cells
[3] = Cytotoxicity (methylene blue / MTS assay), CC50; settings: African green monkey, Vero-118 cells
[4] = tested on: Yellow Fever; settings: in vitro; cited from earlier work
[5] = tested on: Huh-7 cells; assay: Cytotoxicity, CC50; settings: read-out: Half maximal cytotoxic concentration (CC50) Huh-7; Huh-7 cells; value not marked with the 48 h footnote
[6] = Cytotoxicity, CC50; settings: human, Half maximal cytotoxic concentration (CC50) Huh-7, Huh-7 cells; value not marked with the 48 h footnote
[7] = tested on: tick-borne encephalitis viruses; settings: in vitro; cited from earlier work
[8] = tested on: Japanese encephalitis; parameters: method as in PMID 22535622; settings: in vitro; cited from earlier work
[9] = Cytotoxicity (methylene blue / MTS assay), CC50; settings: African green monkey, Vero-F cells
[10] = tested on: Dengue Fever; parameters: method as in PMID 22535622; settings: in vitro; cited from earlier work
[11] = tested on: Vero-118 cells; assay: Cytotoxicity (methylene blue / MTS assay), CC50; settings: cell lines of Figure 6(b) / Table 2 (Vero-118, BHK, RAW)

Compound	CC50 at 4 days [1] [µM]	CC50 at 4 days [2] [µM]	CC50 at 4 days [3] [µM]	EC50 [4]	CC50 [5] [µM]	CC50 [6] [µM]	EC50 [7]	EC50 [8]	CC50 at 4 days [9] [µM]	EC50 [10]	Times more cytotoxic in comparison to 2-cmc [11] [times]
C[C@@]1(O)[C@H](O)[C@@H](CO)O[C@H]1n1ccc(N)nc1=O [2-cmc, 2′-c-Methylcytidine]	37.6	238	117								
CC[C@H](C)[C@H]1O[C@]2(CC[C@@H]1C)C[C@@H]1C[C@@H](C/C=C(\C)[C@@H](O[C@H]3C[C@H](OC)[C@@H](O[C@H]4C[C@H](OC)[C@@H](O)[C@H](C)O4)[C@H](C)O3)[C@@H](C)/C=C/C=C3\CO[C@@H]4[C@H](O)C(C)=C[C@@H](C(=O)O1)[C@]34O)O2 [Ivermectin, 22,23-dihydroavermectin B1]	0.8	1.5	5.7	subnanomolar range	10	7.3	submicromolar	submicromolar	23.6	submicromolar	10
